Tests used:
K562 [1] = assay: Potentiation of 5 nM (-)-lomaiviticin A-induced cytotoxicity against human K562 cells assessed as combination index at 5 uM after 24 hrs by cell titer-glo luminescence assay; assay type: functional
K562 [2] = assay: Cytotoxicity against human K562 cells assessed as decrease in cell viability up to 2.5 to 10 uM after 24 to 48 hrs by cell titer-glo luminescence assay; assay type: cell-based
K562 [3] = assay: Potentiation of 2.5 nM (-)-lomaiviticin A-induced cytotoxicity against human K562 cells assessed as combination index at 5 uM after 24 hrs by cell titer-glo luminescence assay; assay type: functional
K562 [4] = assay: Potentiation of 0.05 nM (-)-lomaiviticin A-induced cytotoxicity against human K562 cells assessed as combination index at 5 uM after 24 hrs by cell titer-glo luminescence assay; assay type: functional
K562 [5] = assay: Potentiation of 0.025 nM (-)-lomaiviticin A-induced cytotoxicity against human K562 cells assessed as combination index at 5 uM after 48 hrs by cell titer-glo luminescence assay; assay type: functional
K562 [6] = assay: Potentiation of 2.5 nM (-)-lomaiviticin A-induced cytotoxicity against human K562 cells assessed as combination index at 5 uM after 48 hrs by cell titer-glo luminescence assay; assay type: functional
K562 [7] = assay: Potentiation of 0.025 nM (-)-lomaiviticin A-induced cytotoxicity against human K562 cells assessed as fraction ratio affected at 5 uM after 48 hrs by cell titer-glo luminescence assay; assay type: functional
K562 [8] = assay: Potentiation of 0.25 nM (-)-lomaiviticin A-induced cytotoxicity against human K562 cells assessed as combination index at 5 uM after 24 hrs by cell titer-glo luminescence assay; assay type: functional
K562 [9] = assay: Potentiation of 0.025 nM (-)-lomaiviticin A-induced cytotoxicity against human K562 cells assessed as combination index at 5 uM after 24 hrs by cell titer-glo luminescence assay; assay type: functional
K562 [10] = assay: Potentiation of 5 nM (-)-lomaiviticin A-induced cytotoxicity against human K562 cells assessed as fraction ratio affected at 5 uM after 24 hrs by cell titer-glo luminescence assay; assay type: functional
K562 [11] = assay: Potentiation of 0.25 nM (-)-lomaiviticin A-induced cytotoxicity against human K562 cells assessed as fraction ratio affected at 5 uM after 24 hrs by cell titer-glo luminescence assay; assay type: functional
K562 [12] = assay: Potentiation of 0.05 nM (-)-lomaiviticin A-induced cytotoxicity against human K562 cells assessed as fraction ratio affected at 5 uM after 24 hrs by cell titer-glo luminescence assay; assay type: functional
K562 [13] = assay: Potentiation of 0.5 nM (-)-lomaiviticin A-induced cytotoxicity against human K562 cells assessed as combination index at 5 uM after 48 hrs by cell titer-glo luminescence assay; assay type: functional
K562 [14] = assay: Potentiation of 0.25 nM (-)-lomaiviticin A-induced cytotoxicity against human K562 cells assessed as combination index at 5 uM after 48 hrs by cell titer-glo luminescence assay; assay type: functional
K562 [15] = assay: Potentiation of 5 nM (-)-lomaiviticin A-induced cytotoxicity against human K562 cells assessed as combination index at 5 uM after 48 hrs by cell titer-glo luminescence assay; assay type: functional
K562 [16] = assay: Potentiation of 5 nM (-)-lomaiviticin A-induced cytotoxicity against human K562 cells assessed as fraction ratio affected at 5 uM after 48 hrs by cell titer-glo luminescence assay; assay type: functional
K562 [17] = assay: Potentiation of 2.5 nM (-)-lomaiviticin A-induced cytotoxicity against human K562 cells assessed as fraction ratio affected at 5 uM after 24 hrs by cell titer-glo luminescence assay; assay type: functional
K562 [18] = assay: Potentiation of 0.05 nM (-)-lomaiviticin A-induced cytotoxicity against human K562 cells assessed as fraction ratio affected at 5 uM after 48 hrs by cell titer-glo luminescence assay; assay type: functional
K562 [19] = assay: Potentiation of 0.5 nM (-)-lomaiviticin A-induced cytotoxicity against human K562 cells assessed as fraction ratio affected at 5 uM after 48 hrs by cell titer-glo luminescence assay; assay type: functional
K562 [20] = assay: Potentiation of 2.5 nM (-)-lomaiviticin A-induced cytotoxicity against human K562 cells assessed as fraction ratio affected at 5 uM after 48 hrs by cell titer-glo luminescence assay; assay type: functional
K562 [21] = assay: Potentiation of 0.5 nM (-)-lomaiviticin A-induced cytotoxicity against human K562 cells assessed as combination index at 5 uM after 24 hrs by cell titer-glo luminescence assay; assay type: functional
K562 [22] = assay: Potentiation of 0.25 nM (-)-lomaiviticin A-induced cytotoxicity against human K562 cells assessed as fraction ratio affected at 5 uM after 48 hrs by cell titer-glo luminescence assay; assay type: functional
K562 [23] = assay: Potentiation of 0.025 nM (-)-lomaiviticin A-induced cytotoxicity against human K562 cells assessed as fraction ratio affected at 5 uM after 24 hrs by cell titer-glo luminescence assay; assay type: functional
K562 [24] = assay: Potentiation of 0.05 nM (-)-lomaiviticin A-induced cytotoxicity against human K562 cells assessed as combination index at 5 uM after 48 hrs by cell titer-glo luminescence assay; assay type: functional
K562 [25] = assay: Potentiation of 0.5 nM (-)-lomaiviticin A-induced cytotoxicity against human K562 cells assessed as fraction ratio affected at 5 uM after 24 hrs by cell titer-glo luminescence assay; assay type: functional
K562 [26] = assay: Potentiation of 0.0025 uM (-)-lomaiviticin A-induced cytotoxicity against human K562 cells assessed as fraction ratio affected at 5 uM after 48 hrs by cell titer-glo luminescence assay; assay type: functional
K562 [27] = assay: Potentiation of 2.5x10'-4 uM (-)-lomaiviticin A-induced cytotoxicity against human K562 cells assessed as combination index at 5 uM after 24 hrs by cell titer-glo luminescence assay; assay type: functional
K562 [28] = assay: Potentiation of 5x10'-4 uM (-)-lomaiviticin A-induced cytotoxicity against human K562 cells assessed as fraction ratio affected at 5 uM after 48 hrs by cell titer-glo luminescence assay; assay type: functional
K562 [29] = assay: Potentiation of 0.0050 uM (-)-lomaiviticin A-induced cytotoxicity against human K562 cells assessed as fraction ratio affected at 5 uM after 48 hrs by cell titer-glo luminescence assay; assay type: functional
K562 [30] = assay: Potentiation of 5x10'-5 uM (-)-lomaiviticin A-induced cytotoxicity against human K562 cells assessed as combination index at 5 uM after 24 hrs by cell titer-glo luminescence assay; assay type: functional
K562 [31] = assay: Potentiation of 0.0050 uM (-)-lomaiviticin A-induced cytotoxicity against human K562 cells assessed as combination index at 5 uM after 48 hrs by cell titer-glo luminescence assay; assay type: functional
K562 [32] = assay: Potentiation of 2.5x10'-5 uM (-)-lomaiviticin A-induced cytotoxicity against human K562 cells assessed as combination index at 5 uM after 24 hrs by cell titer-glo luminescence assay; assay type: functional
K562 [33] = assay: Potentiation of 0.0025 uM (-)-lomaiviticin A-induced cytotoxicity against human K562 cells assessed as combination index at 5 uM after 48 hrs by cell titer-glo luminescence assay; assay type: functional
K562 [34] = assay: Potentiation of 5x10'-4 uM (-)-lomaiviticin A-induced cytotoxicity against human K562 cells assessed as combination index at 5 uM after 48 hrs by cell titer-glo luminescence assay; assay type: functional
K562 [35] = assay: Potentiation of 2.5x10'-4 uM (-)-lomaiviticin A-induced cytotoxicity against human K562 cells assessed as fraction ratio affected at 5 uM after 48 hrs by cell titer-glo luminescence assay; assay type: functional
K562 [36] = assay: Potentiation of 2.5x10'-5 uM (-)-lomaiviticin A-induced cytotoxicity against human K562 cells assessed as fraction ratio affected at 5 uM after 48 hrs by cell titer-glo luminescence assay; assay type: functional
K562 [37] = assay: Potentiation of 0.0025 uM (-)-lomaiviticin A-induced cytotoxicity against human K562 cells assessed as combination index at 5 uM after 24 hrs by cell titer-glo luminescence assay; assay type: functional
K562 [38] = assay: Potentiation of 5x10'-4 uM (-)-lomaiviticin A-induced cytotoxicity against human K562 cells assessed as combination index at 5 uM after 24 hrs by cell titer-glo luminescence assay; assay type: functional
K562 [39] = assay: Potentiation of 5x10'-5 uM (-)-lomaiviticin A-induced cytotoxicity against human K562 cells assessed as combination index at 5 uM after 48 hrs by cell titer-glo luminescence assay; assay type: functional
K562 [40] = assay: Potentiation of 2.5x10'-4 uM (-)-lomaiviticin A-induced cytotoxicity against human K562 cells assessed as combination index at 5 uM after 48 hrs by cell titer-glo luminescence assay; assay type: functional
K562 [41] = assay: Potentiation of 0.0050 uM (-)-lomaiviticin A-induced cytotoxicity against human K562 cells assessed as fraction ratio affected at 5 uM after 24 hrs by cell titer-glo luminescence assay; assay type: functional
K562 [42] = assay: Potentiation of 0.0050 uM (-)-lomaiviticin A-induced cytotoxicity against human K562 cells assessed as combination index at 5 uM after 24 hrs by cell titer-glo luminescence assay; assay type: functional
K562 [43] = assay: Potentiation of 2.5x10'-5 uM (-)-lomaiviticin A-induced cytotoxicity against human K562 cells assessed as combination index at 5 uM after 48 hrs by cell titer-glo luminescence assay; assay type: functional

## O=c1cc(N2CCOCC2)oc2c(-c3cccc4c3sc3ccccc34)cccc12
K562 [1]
  CI: 0.9596
K562 [2]
  Activity: Non-toxic
K562 [3]
  CI: 0.8596
K562 [4]
  CI: 0.1033
K562 [5]
  CI: 0.4328
K562 [6]
  CI: 1.147
K562 [7]
  Ratio: 0.4881
K562 [8]
  CI: 0.2068
K562 [9]
  CI: 0.0855
K562 [10]
  Ratio: 0.9647
K562 [11]
  Ratio: 0.1927
K562 [12]
  Ratio: 0.1367
K562 [13]
  CI: 1.056
K562 [14]
  CI: 0.8337
K562 [15]
  CI: 0.6686
K562 [16]
  Ratio: 0.9912
K562 [17]
  Ratio: 0.7163
K562 [18]
  Ratio: 0.5477
K562 [19]
  Ratio: 0.6811
K562 [20]
  Ratio: 0.9451
K562 [21]
  CI: 0.3196
K562 [22]
  Ratio: 0.5832
K562 [23]
  Ratio: 0.1436
K562 [24]
  CI: 0.4461
K562 [25]
  Ratio: 0.2584

## O=C(c1cc(Cc2n[nH]c(=O)c3ccccc23)ccc1F)N1CCN(C(=O)C2CC2)CC1 [OLAPARIB]
K562 [26]
  Ratio: 0.3508
K562 [2]
  Activity: Non-toxic
K562 [27]
  CI: 29.7935
K562 [28]
  Ratio: 0.1238
K562 [29]
  Ratio: 0.557
K562 [30]
  CI: 28.4346
K562 [31]
  CI: 2.076
K562 [32]
  CI: 0.182
K562 [33]
  CI: 1.277
K562 [34]
  CI: 0.358
K562 [35]
  Ratio: 0.02866
K562 [36]
  Ratio: 0.00109
K562 [37]
  CI: 45.0812
K562 [38]
  CI: 31.4921
K562 [39]
  CI: 29.2295
K562 [40]
  CI: 0.2699
K562 [41]
  Ratio: 0.03638
K562 [42]
  CI: 1.234
K562 [43]
  CI: 0.138

— ChEMBL document CHEMBL3808308, “Synergistic potentiation of (-)-lomaiviticin A cytotoxicity by the ATR inhibitor VE-821” (Bioorg Med Chem Lett, 2016)
